According to US8114382B2, “Myelin detection using benzofuran derivatives” (General Electric Company, priority 2006, dated 2012):

Assays:
[1] = tested on: myelin of freshly explanted sciatic nerve; experiment: Staining of explanted nerves; type: binding, rat; conditions: 20 min incubation, trans-illuminator ≧350 nm
Protocol: Freshly explanted sciatic nerve was incubated in Formula I then imaged under an ultraviolet transilluminator to visualize myelin. Rats were euthanized and within 30 min, 2 cm-long segments of their sciatic nerve tissue were collected, rinsed with PBS, then washed 3×5 min in 50% ethanol. The nerves were incubated at RT in the dark for 20 min in a solution of Formula I as prepared in Example 1. Control nerves were incubated in 50% ethanol. Nerves were rinsed 3×3 min in 50% ethanol, followed by de-ionized distilled water, and mounted on glass slides. Samples were placed on a trans-illuminator (long wavelength, ≧350 nm) and photographed.

[2] = Fluorescence excitation and emission peaks (Spetramax M5); type: physicochemical; conditions: 10 μM in aqueous solution
Protocol: Fluorescence excitation and emission peaks for Formula I, and benzofuran compounds A and B, (see Table 1) were measured using a Spetramax M5 (Molecular Devices). For Formula I, the excitation max was 380 nm, and the emission max was 470 nm. For compound A, the excitation max was 435 nm and the emission max was 550 nm. For compound B, the excitation max was 435 nm and the emission max was 535 nm. The final concentration of each analog in an aqueous solution was 10 μM. Log P, which is the logarithm of octanol-water partition coefficient, was determined for each analog using commercially available software (Table 1).

myelin = experiment: Staining of cryostatic sections of nervous tissue; type: binding, rat; conditions: for labeling of brain or nerve tissue versus background autofluorescence: brain and nerve sections
Protocol: 10 μm-thick sections (fresh frozen or formalin-fixed) of rat brain and cross-sections of sciatic, optic, and penile nerves were mounted on microscope slides, washed 3×5 min in phosphate buffered saline (PBS), then drained for 2 min. 1 mM stock solution of Formula I was prepared in 50% ethanol and 50% deionized water. The solution was vortexed and centrifuged at 10,000×g, and the supernatant, containing fully dissolved Formula I was transferred into a fresh tube. The solution was diluted to 25 uM in 50% ethanol. 200 uL of the 25 uM Formula I was pipetted onto the microscope slides. Control sections were treated with 50% ethanol. Parafilm was placed over sections during 10 min incubation at room temperature. Unbound compound was rinsed by serial immersion in 3×1 min washes in 50% ethanol, followed by a 1 min wash in de-ionized, distilled water. For cell body counterstaining, sections were immersed in 100 uL of 500 nM propidium iodide (PI) in PBS and carefully covered with parafilm. The sections were incubated for 5 min at room temperature. The samples were repeatedly rinsed and washed with PBS (3×10 min), followed by de-ionized, distilled water. The sections were covered with 20 uL of AntiFade Gold (Molecular Probes Inc, Carlsbad Calif.) and examined microscopically. Images were collected on a Leica DMRA2 fluorescent microscope equipped with filter cubes for near ultraviolet and visible fluorophores. Fluorescence was visualized using a Leica “A” filter cube while PI was imaged with a Leica “TX2” cube.
Staining of sciatic nerve sections by Formula I was also compared to a commercially available myelin stain (FluoroMyelin, Invitrogen). The tissue sections were […] by incubating in PBS for 5 minutes, followed by permeabilized with PBS containing 0.2% Triton X-100 for 20 minutes. The staining solution was prepared by 300-fold dilution of a stock solution of DAPI and a stock solution of Fluoromyelin green fluorescent myelin. Each section was flooded with 100 uL of the staining solution, covered with a small piece of parafilm and allowed to incubate for 20 min. The parafilm was removed and all sections were washed 3×5 min in PBS and rinsed with de-ionized, distilled water. After drying, the tissue sections were covered with 20 uL of AntiFade Gold (Molecular Probes Inc) and examined microscopically.

[3] = Kinetics and biodistribution of [3H] labeled Formula I (standard uptake values); type: in vivo; conditions: mice
Protocol: 100 μl of [^3H] labeled Formula I, diluted in saline to 740 kBq/ml, was injected into the tail vein of female mice weighing […]. Mice were killed by CO2 at 2, 5, 15, 30, or 60 min post-injection and organs immediately dissected out. Organs were weighed, transferred to scintillation tubes containing 2 ml Biolute-S (Zinsser Analytic GmbH, Germany), and tubes were shaken overnight at room temperature. Subsequently, 200 μL of glacial acetic acid was added and after 1 h, 10 mL of scintillation fluid was added (Ready Organics, Beckman Coulter). The tubes were shaken vigorously, allowed to rest for 1 h, and radioactivity was measured in scintillation counter (LS 6000LL, Beckman Instruments). Blood, also sampled at each time point, was collected in heparinized tubes. 10 μL of each sample was added to 2 ml Biolute-S. A similar procedure was used for the other organs studied.
Biodistribution of Formula I at different time points following administration was expressed as standard uptake values (SUVs), according to the following formula wherein RA is a measure of radioactivity: […]

Emission max [2] [nm] | Excitation max [2] [nm] | SUV of cortex and cerebellum ([3]; tail vein injection, 2 min post-injection) | time for SUV of multiple tissues to decline to baseline levels ([3]; tail vein injection, tissues such as blood and muscle) [min] | SMILES | fluorescence of explanted sciatic nerve [1] | labeling of rat brain tissue section (myelin; 25 uM in 50% ethanol, 10 min, cerebellum, PI counterstain, FIG. 1) | labeling of sectioned peripheral nerves (myelin; cross-sections of peripheral nerves) | blood-brain barrier penetration ([3]; peripheral administration, uptake in cortex and cerebellum) | SUV / radioactive signal of sciatic nerve over time ([3]; tail vein injection, 2-60 min) | labeling of brain or nerve tissue versus background autofluorescence (myelin)
470 | 380 | < 0.2 | ≤ 60 | O=Cc1ccc(-c2oc3ccccc3c2CO)o1 [Formula I, 2-(2-furanyl-5-formyl)-3-hydroxymethyl benzofuran] | distinctive fluorescence over background | specific labeling of myelin | distinctive rings of labeling indicative of cross sections of myelin ensheathing unlabeled axon shafts | does not readily penetrate the blood-brain barrier | remained elevated throughout the sampling period | 
550 | 435 |  |  | N#CC(C#N)=Cc1ccc(-c2oc3ccccc3c2CO)o1 [compound A] |  |  |  |  |  | did not label brain or nerve tissue above background autofluorescence
535 | 435 |  |  | CC(=O)OCc1c(-c2ccc(C=C(C#N)C#N)o2)oc2ccccc12 [compound B, 2-(2-diaminooxyethenyl-5-furanyl)-3-ethylacetyl benzofuran] |  |  |  |  |  | did not label brain or nerve tissue above background autofluorescence
